From patent US6399568B1, “Cyclic tetrapeptide derivatives and medicinal use thereof” (Japan Energy Corporation, priority 1997, dated 2002)
Non-standard residues stand in square brackets, D forms with d. Residues, ends and D or L forms follow the SMILES beside them. *: point of attachment. Asu = N[C@@H](CCCCCC(=O)O)C(=O)O; NHOH = ON*

Tests used:
[1] = rat, in vivo, 10 mg/kg
Protocol: Under anesthesia with Ketamine/Kylazine mixture, SD rats were administered with HDA-31 into the tail vein (10 mg/kg; 2 ml/kg). The drug was dispersed in PBS and neutralized with NaOH and the resulting suspension was used. After administration, blood was taken from the carotid artery at a given interval of time (using heparin as an anti-coagulant) and centrifuged to prepare plasma. HDA-31 in the plasma was extracted with MTBE (methyl-t-butyl-ether) and separated by reverse-phase HPLC and a peak area corresponding to HDA-31 was quantitatively determined with a mass spectrometer.

[2] = target: Mouse histone deacetylase; assay type: biochemical; settings: enzyme from FM3A cells; [3H]acetyl histone; 37° C. 10 minutes
Protocol: In an enzyme system using a radio-labelled acetylated histone as a substrate, histone deacetylase enzyme inhibiting activity was evaluated. The basic conditions were in accordance with the method of Yoshida et al. (J. Biol. Chem., 265, 17174-17179, 1990).
Mouse histone deacetylase to be used was partially purified from FM3A cells. Cells were suspended in HDA buffer (15 mM potassium phosphate, 5% glycerol, 0.2 mM EDTA, pH 7.5), homogenized and centrifuged (35000×g, 10 min) to collect the nuclei which in turn were homogenized in the same buffer containing 1 M (NH4)2SO4. After ultrasonic disruption and centrifugation, the concentration of (NH4)2SO4 in the supernatant was increased to 3.5 M to precipitate deacetylase enzyme proteins. This precipitate was redissolved in HDA buffer, dialyzed against HDA buffer, applied to DEAE-cellulose column and eluted in NaCl gradient. Active fractions were used as a histone deacetylase enzyme solution.
As a substrate, [^3H]acetyl histone was used. In a culture solution of FM3A cells in the presence of 5 mM sodium n-butyrate, [^3H]acetate was added, followed by incubation for 30 minutes to radio-label the histone. The histone was prepared in a conventional manner and used as a substrate solution.
An assay was performed by adding a compound to be tested at a given concentration while using a no-addition control group, and by incubating the substrate solution and the enzyme solution at 37° C. for 10 minutes (reaction volume, 100 μl). The enzyme reaction was stopped by adding 10 μl of concentrated hydrochloric acid and the excised [^3H]acetate was extracted with ethyl acetate for radioactivity measurement. The inhibiting activity was expressed by a concentration at which the enzyme activity in the control group was inhibited by 50% (50% inhibiting concentration).

Colon26 = assay: In vivo anti-cancer activity in mouse (ascites tumor system); settings: for Median Survival days (T/C %): Colon26 ascites, CDF1 mouse
Protocol: (§1) With respect to an ascites tumor system, in vivo anti-cancer activity of the cyclic tetrapeptide compounds according to the present invention was evaluated using cancer-carrying mouse. The cancer cells used were L1210, B16, Colon26and MH134. These cancer cells were cultured in a conventional manner and suspended in PBS, and 10^5 cells of L1210, or 10^6 cells of B16, Colon26 or MH134 were intraperitoneally transplanted into each mouse (100 μl/mouse). The mouse used was CDF1, BDF1, CDF1 or C3H/HeN (male, 7 weeks in age) for L1210, B16, Colon 26or MH134, respectively. Drug administration was started from the day next to the transplantation of cancer cells. For L1210, 0.5% carboxymethyl cellulose Na suspension and for other cancer cells, PBS solution (actually, as suspension neutralized with NaOH) were continuously administered everyday (100 μl/mouse). The period of administration was 4 days for L1210, 9 days for B16 and MH134, and 8 days for Colon26.
(§2) After the administration period passed, the mice administered were bred and median survival days were calculated on the basis of the number of days from the transplantation of cancer cells to death. The percent ratio (T/C%) between the median survival days (C) for a control group to which an equal amount of a drug-free solution was administered and the median survival days (T) of the treated group administered with the drug was determined.

B16 = assay: as above; settings: for Median Survival days (T/C %): B16 ascites, BDF1 mouse
Protocol: as §1, §2

MH134 = assay: as above; settings: for Median Survival days (T/C %): MH134 ascites, C3H/HeN mouse
Protocol: as §1, §2

L1210 = assay: as above; settings: for Median Survival days (T/C %): L1210 ascites, CDF1 mouse
Protocol: as §1, §2

[3] = test system: mouse malignant melanoma B16/BL6 cell line; assay type: cell-based; settings: 72 hours; read-out: 50% proliferation inhibiting concentration B16/BL6 (nM) mean
Text: In order to verify the action of the cyclic tetrapeptide derivative according to the present invention in inhibiting cell proliferation in cancerized cells, the action on the proliferation of the aforementioned B16/BL6 cells was investigated. The evaluation of cell proliferation rates was done utilizing a commercially available measuring kit, specifically, from Promega under the trade name CellTiter 96 Aqueous Non-Radioactive Proliferation Assay Kit. In the measuring kit, the amount of products through reduction of a reagent tetrazolium compound (3-(4,5-dimethylthiazol-2-yl)-5-(3-carboxymethoxyphenyl)-2-(4-sulfophenyl)-2H-tetrazolium, inner salt; MTS) by viable animal cells is determined by detecting spectrophotometrically the color generated from the products. Since the amount of products is proportional to the amount of viable cells, this kit is utilized to evaluate the amount of viable cells.
According to the procedure of Test Example 1, B16/BL6 cells are inoculated in a 96 well microplate and cultured for 24 hours. […] Thereafter, culture is continued for additional 48 hours and 20 μl of a reagent solution in the aforementioned CellTiter 96 Aqueous Non-Radioactive Proliferation Assay Kit is then added. After incubation is continued at 37° C. for 1 hour, the amount of color generation is measured as an absorbance at 490 n musing a microplate reader.
The amount of cell proliferation of a group to which a compound to be tested is added is expressed in a relative value as compared to the standard cell proliferation (100%) in a control group to which no compound to be tested is added. For each compound tested, the amounts of cell proliferation were measured at different concentrations of addition and the dependence of the quantitative cell proliferation on the concentration of addition was investigated.
The test method was in accordance with the above-mentioned procedure, except that the period of incubation after the addition of a compound was 72 hours.

[4] = 0.015 mg/mouse everyday for 9 days
[5] = 0.05 mg/mouse everyday for 9 days
[6] = 0.15 mg/mouse everyday for 9 days

CC[C@H](C)[C@@H]1NC(=O)[C@@H](Cc2ccc(OC)cc2)NC(=O)[C@H](CCCCCC(=O)NO)NC(=O)[C@H]2CCCN2C1=O [HDA-31, cyclo(-L-Asu(NHOH)-D-Tyr(Me)-L-Ile-D-Pro-)] (cyclo([Asu](NHOH)[dY](Me)I[dP]))
concentration in blood (plasma) after intravenous administration [1]: concentrations in blood exceeding the stated effective concentrations were maintained over a few hours
IC50 [2]: 2.08 nM
life-saving effect (Colon26; Colon26 ascites tumor): no life-saving effect was observed
Median Survival days (T/C %) (Colon26; 0.015 mg/mouse everyday for 8 days): 90.9%
Median Survival days (T/C %) (Colon26; 0.05 mg/mouse everyday for 8 days): 86.4%
Median Survival days (T/C %) (Colon26; 0.15 mg/mouse everyday for 8 days): 63.6%
life-saving effect (B16; B16 ascites tumor): obviously exhibited a life-saving effect
Median Survival days (T/C %) (B16; [4]): 117%
Median Survival days (T/C %) (B16; [5]): 119%
Median Survival days (T/C %) (B16; [6]): 139%
life-saving effect (MH134; MH134 ascites tumor): no life-saving effect was observed
Median Survival days (T/C %) (MH134; [4]): 95.8%
Median Survival days (T/C %) (MH134; [5]): 85.4%
Median Survival days (T/C %) (MH134; [6]): 91.7%
life-saving effect (L1210; L1210 ascites tumor): obviously exhibited a life-saving effect
Median Survival days (T/C %) (L1210; 0.015 mg/mouse everyday for 4 days): 113%
Median Survival days (T/C %) (L1210; 0.15 mg/mouse everyday for 4 days): 125%
Median Survival days (T/C %) (L1210; 1.5 mg/mouse everyday for 4 days): 37.5%
IC50 [3]: 5.43 nM
